In patent publication US20110111040A1, “POLYELECTROLYTE-ENCAPSULATED GOLD NANOPARTICLES CAPABLE OF CROSSING BLOOD-BRAIN BARRIER” (priority 2008, published 2011):

How the values were obtained:
[1] = Electrophoretic mobility (ue) measurements as a function of pH; type: physicochemical
Method: Electrophoretic mobility (ue) measurements were performed in a Malvern Zetasizer 2000 apparatus (Malvern Instruments, England) at room temperature. Measurements were carried out 24 hours after the preparation of the suspensions, and the pH was readjusted immediately before the mobility was measured. In FIG. 1. electrophoretic mobility as a function of the pH of the gold nanoparticles, creatine, gold-creatine composite particles, and albumin are shown. As observed, the gold nanoparticles present a negative electrophoretic mobility (ue) over the whole range of pH, characteristic of the citrate molecules adsorbed on them, becoming more negative with pH increase. […] On the contrary, albumin molecules present an isoelectric point between pH 4.5-5, becoming more negative with pH increase.

[2] = albumin alone; stated without own test; cited from earlier work

electrophoretic mobility (ue) ([1]; acidic conditions) | electrophoretic mobility (ue) ([1]; whole range of pH) | Compound | crossing of the blood brain barrier [2] | isoelectric point [1]
very close to zero | negative | CN(CC(=O)O)C(=N)N [Creatine] | – | –
– | – | albumin | not able to cross the blood brain barrier | 4.5-5 pH
